# Source: US12569686B2, “Chronically implantable systems and methods for affecting cardiac contractility and/or relaxation” (Cardionomix, Inc., priority 2020, dated 2026)
# System: normal, non-HF ovine model
# Experiment: Change in ventricle contractility (max dP/dt as surrogate) and beat-by-beat correlation of right and left ventricle contractility after an injection
# Type: in vivo
# Conditions: pressure max (dP/dt) used as surrogate for contractility, calcium at 5 mL
# Source text: The correlation was a heartbeat-by-heartbeat analysis. Pressure measurements, taken by a Millar catheter comprising a MEMS pressure sensor, in units of max (dP/dt) was used as a surrogate for contractility. The first change, a dobutamine injection, provided a very high contractility increase greater than 500%. The average correlation between right ventricle contractility and left ventricle contractility was very good at 0.91, where 1.00 is a perfect correlation. Accordingly, if a subject is given a dobutamine injection, measuring changes to right ventricle contractility can provide accurate information about changes to left ventricle contractility. The first change was repeated three times. The second change, calcium injection at 5 mL, provided a contractility increase of about 20%. […] The average correlation between right ventricle contractility and left ventricle contractility using a Millar (MEMS) sensor on a catheter was very good at 0.91. The average correlation between right ventricle contractility and left ventricle contractility using a fluid-filled lumen of a Swan-Ganz catheter in communication with an external pressure sensor was also very good at 0.87. […]
substance,measurement,setting,value
calcium [Calcium Injection],Contractility % Increase,,~20%
same,Contractility % Increase,listed as calcium injection,about 20%
